# According to publication PMC7287882, “Dual miRNases for Triple Incision of miRNA Target: Design Concept and Catalytic Performance” (Molecules, 2020):
# Tested on: miR-17
# Test: Ribonuclease activity assay, cleavage of miR-17
# Type: biochemical
# Details: miRNA 1 µM, DC 20 µM, 37 °C
# Procedure: The ribonuclease activity of DCs was studied under two different buffer conditions: buffer (1) contained 50 mM Tris-HCl, pH 7.0, 200 mM KCl, 1 mM EDTA, which imitates intracellular conditions (e.g., pH and potassium ions concentration) and was used in a number of studies previously; and buffer (2) contained 20 mM Tris-HCl, pH 7.8, 40 mM KCl, 8 mM MgCl2, 1 mM DTT, 0.02 mg/mL BSA, which is recommended for in vitro reactions with RNase H (Figure 3 and Figure 4).
# Figure 3 Kinetics of cleavage of 5′-[^32P]-labeled miR-17, miR-18a, miR-155, miR-21 and miR-21_1 by corresponding DCs in the buffer (1), containing 50 mM Tris-HCl, pH 7.0, 200 mM KCl and 1 mM EDTA. (a–e) Radioautographs of 18% denaturing PAAG showing the cleavage products of miR-17, miR-18a, miR-155, miR-21 and miR-21_1, respectively. miRNA (1 µM) and corresponding DC (20 µM) were incubated at 37 °C for 72 h. Lanes Im and T1—imidazole ladder and partial RNA digestion with RNase T1, respectively; control–miRNA was incubated in the absence of the conjugate. The incubation time (in hours) is show at the top. SS gap–single-stranded region of miRNA formed upon hybridization with DC; (f) Kinetics of miRNAs cleavage by DCs depending on the incubation time. Data are presented as mean ± s.e.
# Figure 4 Kinetics of cleavage of 5′-[^32P]-labeled miR-17, miR-18a, miR-155, miR-21, and miR-21_1 by corresponding DCs in the buffer (2), containing 20 mM Tris-HCl, pH 7.8, 40 mM KCl, 8 mM MgCl2, 1 mM DTT, 0.02 mg/mL BSA. (a–e) Radioautographs of 18% denaturing PAAG showing the cleavage products of miR-17, miR-18a, miR-155, miR-21 and miR-21_1, respectively. miRNA (1 µM) and corresponding DC (20 µM) were incubated at 37 °C for 72 h. Lanes Im and T1–imidazole ladder and partial RNA digestion with RNase T1, respectively; control–miRNA was incubated in the absence of the conjugate. The incubation time (in hours) is shown at the top. SS gap–single-stranded region of miRNA formed upon hybridization with DC; (f) Kinetics of miRNAs cleavage by DCs. Data are presented as mean ± s.e.
# The reaction mixture (10 µL) contained 800 cpm (Cherenkov’s counting) of [^32P]-miRNA, 1 μM unlabeled miRNA, one of the conjugates at a concentration 10 or 20 μM and one of the buffers: 50 mM Tris-HCl, pH 7.0, 200 mM KCl, 1 mM EDTA–buffer (1) or 20 mM Tris-HCl, pH 7.8, 40 mM KCl, 8 mM MgCl2, 1 mM DTT, 0.02 mg/mL BSA–buffer (2). The mixture was incubated at 37 °C for 0–72 h and quenched by precipitation of RNA with 2% LiClO4 in acetone (90 µL). RNA was collected by centrifugation and dissolved in loading buffer (8 M urea, 0.025% bromophenol blue, 0.025% xylene cyanol). RNA cleavage products were analyzed in 18% PAAG/8M urea using TBE (100 mM Tris-borate, pH 8.3, 2 mM EDTA) as running buffer. To identify cleavage sites, an imidazole and T1-ladders produced by partial RNA cleavage with 2 M imidazole buffer (pH 7.0) and with RNase T1 [68], respectively, were run in parallel. To obtain quantitative data, gels were dried and analyzed using Molecular Imager FX. The total extent of RNA cleavage and the extent of RNA cleavage at each individual site were determined by using Quantity One software v.4.1 (Bio-Rad, Hercules, CA, USA).
substance,measurement,setting,value
"CTACCTGC–linker 1–[GRLRL]2–linker 2–AAGCACTTTG [miRNA-17-DC, Dual oligonucleotide-peptide conjugate targeted to miR-17: catalytic peptide [LRLRG]2 between two 2-aminoadenine-containing oligodeoxyribonucleotides]",Total Cleavage,"buffer (1) 50 mM Tris-HCl pH 7.0, 200 mM KCl, 1 mM EDTA, 2 h",0%
same,Total Cleavage,"buffer (1) 50 mM Tris-HCl pH 7.0, 200 mM KCl, 1 mM EDTA, 6 h",0%
same,Total Cleavage,"buffer (1) 50 mM Tris-HCl pH 7.0, 200 mM KCl, 1 mM EDTA, 24 h",1%
same,Total Cleavage,"buffer (1) 50 mM Tris-HCl pH 7.0, 200 mM KCl, 1 mM EDTA, 48 h",2%
same,Total Cleavage,"buffer (1) 50 mM Tris-HCl pH 7.0, 200 mM KCl, 1 mM EDTA, 72 h",5%
same,Total Cleavage,"buffer (2) 20 mM Tris-HCl pH 7.8, 40 mM KCl, 8 mM MgCl2, 1 mM DTT, 0.02 mg/mL BSA, 2 h","1,5%"
same,Total Cleavage,"buffer (2) 20 mM Tris-HCl pH 7.8, 40 mM KCl, 8 mM MgCl2, 1 mM DTT, 0.02 mg/mL BSA, 6 h",4%
same,Total Cleavage,"buffer (2) 20 mM Tris-HCl pH 7.8, 40 mM KCl, 8 mM MgCl2, 1 mM DTT, 0.02 mg/mL BSA, 24 h",18%
same,Total Cleavage,"buffer (2) 20 mM Tris-HCl pH 7.8, 40 mM KCl, 8 mM MgCl2, 1 mM DTT, 0.02 mg/mL BSA, 48 h",32%
same,Total Cleavage,"buffer (2) 20 mM Tris-HCl pH 7.8, 40 mM KCl, 8 mM MgCl2, 1 mM DTT, 0.02 mg/mL BSA, 72 h",40%
same,rise of Kobs in buffer (2) compared to Kobs in buffer (1),,10 fold
